These results are taken from US12433870B2, “Supramolecular photoprotection of a photosensitizer” (Northwestern University, priority 2019, dated 2025).

The nature of series [1]: pH-dependent release of DPP from the complex (fluorescence and transient absorption, pH 4.5). The series is classed as physicochemical. From the text:
At low pH, DPP can be protonated. Therefore, the electrostatic repulsion between the cationic DPP and the tetracationic host ExBox^4+ can trigger release of DPP in H2O. Indeed, when aqueanous solution of ExBox^4+⊃DPP is acidified with HCl (pH 4.5), protonated DPP was released in H2O leading to 17-fold increment of fluorescence signals (FIG. 4A). […] The residual population survived for several microseconds and has a transient absorption spectrum of ^3*DPP; the […] (FIGS. 4D-4E) approximates the decay of the long-lived triplet state in aerated, room temperature aqueous solution. […] We estimate this fraction to be approximately 30% at the ˜20 μM concentration of the transient absorption experiments.
The setup for transient absorption measurements has been described elsewhere.^3 Photoexcitation pulses at 414 nm were obtained through a beta barium borate (BBO) crystal doubling the fundamental, and the 575 nm pulses were generated with a laboratory-constructed optical parametric amplifier. The pulse power for photoexcitation was attenuated to ˜1 μJ/pulse, using neutral density filters. The pump polarization was randomized employing a commercial depolarizer (DPU-25-A, Thorlabs, Inc.) to eliminate any orientational dynamics contributions from the experiment. […]

A further series deals with MCF-7 cells. As to the kind of experiment: MTT assay, in vitro cytotoxicity in the dark. The series is classed as cell-based, human. As to conditions: 0.625-100 μM in PBS. How it is done: (§1) A2780 cells (human ovarian cancer cell line) and MCF-7 cells (human breast adenocarcinoma cell line) obtained from Sigma-Aldrich and American Type Culture Collection (ATCC, Rockville, MD, USA), respectively were utilized for cell culture experiments. These cells were cultured in Dulbecco's Modified Eagle's Medium (DMEM) supplemented with 10% fetal bovine serum (FBS), penicillin (100 IU/mL) and streptomycin (100 μg/mL) at 37° C. in the presence of air (95%) and CO2 (5%).
(§2) A2780 or MCF-7 cells (2×10^5 cells/mL, 100 μL) were seeded in each well of a black 96-well plate. Stock solution of ExBox^4+⊃DPP in PBS (1 mM, 10 μL) was added to each well to achieve working concentrations and incubated for 12 h. […] Following irradiation, cells were incubated overnight and then added with MTT (5 mg/mL in PBS, 10 μL). After 4 h incubation with MTT, media from each well was pipetted out, formazan crystals deposited on the plate were dissolved in 200 μL of Me2SO, and the absorbance of each well was measured using a microplate reader at 560 nm. All the samples were analyzed in quadruplicates.
(§3) The percentage cell viability was calculated using the following formula: % cell viability=(OD of treated sample/OD of untreated sample)*100.
(In general: Tetrazolium dyes change colour on reduction, which living cells bring about.)

The subject of series [2] is A2780 cells. As to the kind of experiment: MTT assay, in vitro cytotoxicity in the dark. The class given is cell-based, human. As to conditions: 0.625-100 μM in PBS. The protocol: as §1, §2, §3
The subject of series [3] is A2780 cells. As to the kind of experiment: Annexin V FITC/7-AAD apoptosis assay. The class given is cell-based. As to conditions: for intact cells: dark conditions. How it is done: A2780 cells (5×10^5 cells/mL, 100 μL) were seeded in each well of a Black 96-well plate and incubated with 5 or 10 μM PBS solution of ExBox^4+⊃DPP for 12 h. After incubation, cells were washed with 1×PBS, added with 100 μL of DMEM and immediately irradiated with visible light using Max-303 Xenon Light Source (385-740 nm, Asahi Spectra) at 25 and 50 mW light intensities for 10 min. After irradiation, cells were incubated for an additional 3 h prior to being trypsinized and recovered for annexin V staining. 50 μL of Annexin V solution (1:50 FITC Annexin V in Annexin V staining buffer) was added to cells and was incubated at room temperature for 20 min. 500 μL of 1×PBS was then added to cells, which were centrifuged at 400 ref for 5 min, and the supernatant was discarded. Cells were resuspended in 100 μL of 1:20 7-AAD in cell staining buffer and were incubated for 10 min prior to analysis on a BD Fortessa flow cytometer. Cells were first gated for singlet events using FSC-A vs. FSC-H, after which debris was excluded used FSC-A vs. SSC-A. All remaining events were gated as live, dead, or apoptotic based on annexin V staining vs. 7-AAD staining, with dead cells staining 7-AAD+, live cells staining as 7-AAD- and annexin-V-, and apoptotic cells staining 7-AAD-annexin-V+. Cells without irradiation were used as controls.

Series [4] relates to A2780 cells. As to the kind of experiment: In vitro PDT efficacy, MTT assay after visible light irradiation. The series is classed as cell-based, human. The protocol:
as §1
A2780 or MCF-7 cells (2×10^5 cells/mL, 100 μL) were seeded in each well of a black 96-well plate. Stock solution of ExBox^4+⊃DPP in PBS (1 mM, 10 μL) was added to each well to achieve working concentrations and incubated for 12 h. After incubation, wells were washed with PBS, added with 100 μL of DMEM and immediately irradiated with visible light using Max-303 Xenon Light Source (385-740 nm, Asahi Spectra) at different light intensities (5-50 mW) for 1 to 15 min. Following irradiation, cells were incubated overnight and then added with MTT (5 mg/mL in PBS, 10 μL). After 4 h incubation with MTT, media from each well was pipetted out, formazan crystals deposited on the plate were dissolved in 200 μL of Me2SO, and the absorbance of each well was measured using a microplate reader at 560 nm. All the samples were analyzed in quadruplicates.
as §3

Turning to `C1=Cc2nc1cc1ccc([nH]1)c(-c1ccccc1)c1nc(cc3ccc([nH]3)c2-c2ccccc2)C=C1.c1cc2ccc1C[n+]1ccc(cc1)-c1ccc(cc1)-c1cc[n+](cc1)Cc1ccc(cc1)C[n+]1ccc(cc1)-c1ccc(cc1)-c1cc[n+](cc1)C2` [ExBox^4+⊃DPP], the “increment of fluorescence signals on release of protonated DPP” value in series [1] (aqueous solution acidified with HCl (pH 4.5) versus pH 7, λex=414 nm) stood at 17 fold. Besides, the “fraction of the complex population with DPP released (electron transfer turned off)” value in series [1] (pH 4.5, ~20 μM, transient absorption) is on record as “approximately 30%”. Further, the “cell viability in the dark” value in the series with MCF-7 cells and in the series with A2780 cells [2] was more than 95% in each case. The intact cells in the series on A2780 cells [3] (5 μM) came out at 79%; with A2780 cells [3] (10 μM) it was 72%. For the same compound, the apoptotic cells entry with A2780 cells [3] (10 μM versus 5 μM, 0.078 or 0.156 Jcm^−2 light dose, 3 h post irradiation) was “a smaller number of apoptotic cells”. The “killing of A2780 cells” value in the series on A2780 cells [4] (10 μM, 10 min visible light irradiation, 0.078 and 0.156 J cm^−2) is more than 95%. Also, in the series with A2780 cells [4] (0.078 J cm^−2 light dose, 5 μM), the “irradiation time to kill >90% A2780 cells” value is listed as 10 min. In the series on A2780 cells [4] (0.1, 0.05 and 0.01 μM, 10 min irradiation, 0.078 and 0.156 J cm^−2), the “killing of A2780 cells at other concentrations” value is given as “less efficient”. The “irradiation time to kill >90% of cells” value in the series on A2780 cells [4] (0.156 J cm^−2 light dose, 10 μM) came to 2 min. The “effect on cell viability (MTT)” value is recorded as “almost no effect on cell viability” in the series on A2780 cells [4] (1.25 and 0.625 μM, light doses 0.078 and 0.156 J cm^−2); “no effect on cell viability” with A2780 cells [4] (light dose, same concentrations). The “A2780 cell-death (MTT)” value in the series with A2780 cells [4] (2.5, 5 and 10 μM, light doses 0.078 and 0.156 J cm^−2) is recorded as more than 90%. For the same compound, the “efficacy at light dose 0.032 J cm^−2 (MTT)” value in the series on A2780 cells [4] (light dose 0.032 J cm^−2) was “efficacious only at 5 and 10 μM concentrations”.
